Results on 32 molecules are retold here after US20260207602A1, “EGFR INHIBITORS” (Blueprint Medicines Corporation, priority 2022, published 2026).

A word on the IC50: it is the concentration that gives 50% inhibition.

Test [1] concerns the target T1, EGFR (d746-750) (Homo sapiens, UniProt P00533, DEL746-750).
T1 construct: purchased SignalChem E10-122JG
The test is described as follows: Biochemical EGFR inhibition assay (Caliper mobility shift), EGFR (d746-750). The conditions noted are these: biochemical Caliper mobility shift assay, EGFR Exon 19-del enzyme; read-out: Enz EGFR Exon 19-del IC50. The procedure, abridged:
(§1)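 Mobility-shift readout: phosphorylated and unphosphorylated 5-FAM peptide (2.5 µM) separated electrophoretically. Reactions at room temperature (25 °C), 1.0 mM ATP or ATP Km, HEPES pH 7.5 with MgCl2, Brij-35, DTT and 1.0% DMSO; terminated at 10–20% turnover with 35 mM EDTA. Apparent IC50 fitted.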

For test [2], the target named is intracellular phosphorylation of EGFR (Tyr1068) in PC-9 cells (Homo sapiens, UniProt P00533, DEL746-750). The test is described as follows: PC-9 pEGFR AlphaLISA assay. In kind it is cell-based. Conditions: 4 hours incubation, read-out: Phos EGFR PC9 IC50. The procedure, abridged: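 PC-9 cells (EGFR del746-750) in phenol-free DMEM/10% FBS, adhered overnight, then exposed to 10-point 4-fold compound dilutions for 4 h at 37 °C. Lysates assayed for pEGFR Tyr1068 by AlphaLISA SureFire Ultra; IC50 from percent pEGFR inhibition vs log concentration.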
For orientation: Bead proximity is the source of the signal in Alpha formats.

Test [3] deals with T2, EGFR L858R (Homo sapiens, UniProt P00533, L858R).
T2 construct: purchased SignalChem E10-122BG
The test is described as follows: Biochemical EGFR inhibition assay (Caliper mobility shift), EGFR L858R. The conditions noted are these: biochemical Caliper mobility shift assay, EGFR L858R enzyme; read-out: Enz EGFR L858R IC50. The method in brief:
as §1

T1 sequence (P00533 with tags, fused parts or gaps DEL746-750 limits assumed): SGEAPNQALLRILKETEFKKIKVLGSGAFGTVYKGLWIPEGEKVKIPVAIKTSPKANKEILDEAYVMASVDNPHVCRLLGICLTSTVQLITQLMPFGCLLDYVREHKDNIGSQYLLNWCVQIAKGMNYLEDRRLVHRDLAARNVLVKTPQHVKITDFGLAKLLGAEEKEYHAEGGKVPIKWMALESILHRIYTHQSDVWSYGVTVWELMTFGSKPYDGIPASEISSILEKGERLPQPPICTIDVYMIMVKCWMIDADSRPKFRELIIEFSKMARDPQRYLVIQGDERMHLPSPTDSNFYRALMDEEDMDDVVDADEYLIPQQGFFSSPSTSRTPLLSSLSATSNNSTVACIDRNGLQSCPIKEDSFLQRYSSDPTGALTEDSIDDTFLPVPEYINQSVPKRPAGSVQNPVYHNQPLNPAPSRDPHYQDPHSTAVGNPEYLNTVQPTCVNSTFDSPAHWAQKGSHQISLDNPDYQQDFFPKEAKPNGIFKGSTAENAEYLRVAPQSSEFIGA
T2 sequence (P00533 25-1210 L858R): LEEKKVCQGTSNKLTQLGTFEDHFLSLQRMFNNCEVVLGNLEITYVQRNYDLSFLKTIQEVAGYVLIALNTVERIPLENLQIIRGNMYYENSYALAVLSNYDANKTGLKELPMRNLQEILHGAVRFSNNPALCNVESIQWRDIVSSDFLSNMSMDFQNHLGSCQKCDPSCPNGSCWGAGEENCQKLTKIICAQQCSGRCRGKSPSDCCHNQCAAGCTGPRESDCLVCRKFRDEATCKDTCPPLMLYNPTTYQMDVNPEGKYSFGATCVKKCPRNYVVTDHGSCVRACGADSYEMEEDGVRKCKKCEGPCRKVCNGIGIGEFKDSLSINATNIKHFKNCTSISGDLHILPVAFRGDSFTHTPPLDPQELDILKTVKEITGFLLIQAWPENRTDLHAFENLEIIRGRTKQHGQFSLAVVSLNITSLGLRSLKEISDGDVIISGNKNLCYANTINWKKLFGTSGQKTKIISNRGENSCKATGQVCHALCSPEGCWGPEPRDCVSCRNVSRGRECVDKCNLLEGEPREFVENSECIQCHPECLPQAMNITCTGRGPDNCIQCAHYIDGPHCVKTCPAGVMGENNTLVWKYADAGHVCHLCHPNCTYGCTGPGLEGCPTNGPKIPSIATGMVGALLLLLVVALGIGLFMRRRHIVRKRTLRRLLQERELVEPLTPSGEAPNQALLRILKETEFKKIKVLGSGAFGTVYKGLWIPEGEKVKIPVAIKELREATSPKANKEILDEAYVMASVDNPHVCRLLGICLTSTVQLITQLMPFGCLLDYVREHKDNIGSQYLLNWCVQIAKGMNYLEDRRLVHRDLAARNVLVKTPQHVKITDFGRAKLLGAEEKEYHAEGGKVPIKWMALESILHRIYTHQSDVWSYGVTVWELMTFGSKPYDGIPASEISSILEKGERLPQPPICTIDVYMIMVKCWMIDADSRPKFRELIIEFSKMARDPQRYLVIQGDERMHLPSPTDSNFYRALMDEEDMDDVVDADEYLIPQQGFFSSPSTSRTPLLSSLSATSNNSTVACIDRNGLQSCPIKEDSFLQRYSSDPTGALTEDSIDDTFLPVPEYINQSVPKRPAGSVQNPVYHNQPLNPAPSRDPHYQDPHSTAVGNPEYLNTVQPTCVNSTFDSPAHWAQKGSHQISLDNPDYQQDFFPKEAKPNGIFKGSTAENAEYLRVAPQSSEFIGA
Sequence of intracellular phosphorylation of EGFR (Tyr1068) in PC-9 cells (P00533 with tags, fused parts or gaps DEL746-750): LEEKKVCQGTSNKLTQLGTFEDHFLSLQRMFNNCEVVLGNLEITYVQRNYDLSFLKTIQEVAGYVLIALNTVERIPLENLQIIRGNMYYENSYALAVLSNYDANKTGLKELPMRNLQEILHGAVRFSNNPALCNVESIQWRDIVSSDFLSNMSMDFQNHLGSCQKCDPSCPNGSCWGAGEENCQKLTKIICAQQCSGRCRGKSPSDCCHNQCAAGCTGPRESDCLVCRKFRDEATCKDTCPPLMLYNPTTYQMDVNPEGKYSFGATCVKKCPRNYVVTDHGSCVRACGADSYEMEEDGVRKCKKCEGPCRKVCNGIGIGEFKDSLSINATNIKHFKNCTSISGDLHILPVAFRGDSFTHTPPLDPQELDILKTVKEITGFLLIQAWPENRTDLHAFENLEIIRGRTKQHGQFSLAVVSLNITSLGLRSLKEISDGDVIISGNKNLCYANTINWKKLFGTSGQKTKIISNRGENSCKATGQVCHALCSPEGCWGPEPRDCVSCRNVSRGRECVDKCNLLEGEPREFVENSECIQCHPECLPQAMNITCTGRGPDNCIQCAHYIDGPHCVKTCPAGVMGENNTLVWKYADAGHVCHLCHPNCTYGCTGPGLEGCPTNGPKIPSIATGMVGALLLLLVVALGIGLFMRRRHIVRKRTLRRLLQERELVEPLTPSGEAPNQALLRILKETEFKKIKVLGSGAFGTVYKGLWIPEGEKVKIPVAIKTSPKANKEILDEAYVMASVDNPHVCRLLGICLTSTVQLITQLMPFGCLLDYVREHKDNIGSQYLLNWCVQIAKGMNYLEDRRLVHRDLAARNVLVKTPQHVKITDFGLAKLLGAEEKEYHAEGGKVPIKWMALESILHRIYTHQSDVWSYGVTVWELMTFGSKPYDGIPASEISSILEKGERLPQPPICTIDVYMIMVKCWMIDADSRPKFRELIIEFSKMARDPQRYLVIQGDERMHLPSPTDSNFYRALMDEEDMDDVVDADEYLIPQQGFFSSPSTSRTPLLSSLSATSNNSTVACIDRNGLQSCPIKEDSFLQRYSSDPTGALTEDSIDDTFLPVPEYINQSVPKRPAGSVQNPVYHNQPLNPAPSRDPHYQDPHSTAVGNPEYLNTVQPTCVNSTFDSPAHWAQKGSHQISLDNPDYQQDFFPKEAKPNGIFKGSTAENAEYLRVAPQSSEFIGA

For the molecule `CN1C[C@H](F)[C@H](Oc2cc(-c3cnn(C)c3)cc3ncnc(Nc4ccc5ncsc5c4)c23)C1` (single isomer, unassigned) [Example 380], the IC50 was no more than 10 nM in test [1], 10.1 to 50 nM in test [2] and no more than 10 nM in test [3].

On to `C[C@@H](Oc1cc(-c2cnn(C)c2)cc2ncnc(Nc3ccc4ncsc4c3)c12)C1CN(C)C1` (single isomer, unassigned) [Example 384], for which the IC50 in test [1], in test [2] and in test [3] was 10.1 to 50 nM throughout.

As to `C[C@@H](Oc1cc(-c2cnn(C)c2)cc2ncnc(Nc3ccc4ncsc4c3)c12)C1CN(C)C1` (single isomer, unassigned) [Example 385], the IC50 in test [1], in test [2] and in test [3] was no more than 10 nM throughout.

With `C[C@@H](Oc1cc(-c2cnn(C)c2)cc2ncnc(Nc3ccc4ncsc4c3F)c12)C1CN(C)C1` (single isomer, unassigned) [Example 387], the IC50 in test [1], in test [2] and in test [3] was no more than 10 nM throughout.

`C[C@@H](Oc1cc(-c2cnn(C)c2)cc2ncnc(Nc3ccc4ncsc4c3F)c12)C1CN(C)C1` (single isomer, unassigned) [Example 388]: the IC50 in test [1] was 10.1 to 50 nM; in test [2], greater than 50.1 nM; in test [3] it was greater than 50.1 nM.

Take `CC[C@H](Oc1cc(-c2cnn(C)c2)cc2ncnc(Nc3ccc4ncsc4c3F)c12)C1CN(C)C1` (single isomer, unassigned) [Example 389]: the IC50 in test [1] was no more than 10 nM; in test [2], 10.1 to 50 nM; in test [3], 10.1 to 50 nM.

For `CC[C@H](Oc1cc(-c2cnn(C)c2)cc2ncnc(Nc3ccc4ncsc4c3F)c12)C1CN(C)C1` (single isomer, unassigned) [Example 390], the IC50 in test [1], in test [2] and in test [3] was greater than 50.1 nM throughout.

Take `CN1CC[C@H](Nc2cc3c(Nc4ccc5ncsc5c4)ncnc3cc2-c2ccn(C)n2)[C@H](F)C1` (single isomer, unassigned) [Example A05, N4-(benzo[d]thiazol-6-yl)-N6-((3R,4S)-3-fluoro-1-methylpiperidin-4-yl)-7-(1-methyl-1H-pyrazol-3-yl)quinazoline-4,6-diamine or N4-(benzo[d]thiazol-6-yl)-N6-((3S,4R)-3-fluoro-1-methylpiperidin-4-yl)-7-(1-methyl-1H-pyrazol-3-yl)quinazoline-4,6-diamine]: the IC50 in test [1], in test [2] and in test [3] was no more than 10 nM each time.

Turning to `COC[C@@H](C)Oc1cc(-n2cc([C@@H](C)O)cn2)cc2ncnc(Nc3ccc4ncsc4c3F)c12` (single isomer, unassigned) [Example A19], the IC50 in test [1], in test [2] and in test [3] was no more than 10 nM each time.

As to `Cn1cc(-c2cc(O[C@@H]3C[C@@H](O)[C@@H](O)C3)c3c(Nc4ccc5ncsc5c4)ncnc3c2)cn1` (single isomer, unassigned) [Example A22], the IC50 is no more than 10 nM in test [1], 10.1 to 50 nM in test [2] and no more than 10 nM in test [3].

As for `C[C@@H](Oc1c(F)c(-c2cnn(C)c2)cc2ncnc(Nc3ccc4ncsc4c3F)c12)C1COC1` (single isomer, unassigned) [Example A27], the values for the IC50 in test [1], in test [2] and in test [3] were no more than 10 nM, 10.1 to 50 nM and no more than 10 nM, respectively.

Regarding `C[C@@H](Oc1c(F)c(-c2cnn(C)c2)cc2ncnc(Nc3ccc4ncsc4c3F)c12)C1COC1` (single isomer, unassigned) [Example A28], the IC50 in test [1] was no more than 10 nM; in test [2], greater than 50.1 nM; in test [3], 10.1 to 50 nM.

As for `Cn1cc(-c2cc(O[C@H]3COC[C@@H]3O)c3c(Nc4ccc5ncsc5c4)ncnc3c2)cn1` (single isomer, unassigned) [Example A29], the IC50 in test [1] is no more than 10 nM; in test [2], 10.1 to 50 nM; in test [3] it was no more than 10 nM.

On to `Cn1cc(-c2cc(O[C@H]3COC[C@@H]3O)c3c(Nc4ccc5ncsc5c4)ncnc3c2)cn1` (single isomer, unassigned) [Example A30], for which the IC50 in test [1] is no more than 10 nM; in test [2], greater than 50.1 nM; in test [3], no more than 10 nM.

As to `CO[C@H]1COC[C@@H]1Oc1cc(-c2cnn(C)c2)cc2ncnc(Nc3ccc4ncsc4c3)c12` (single isomer, unassigned) [Example A31], the IC50 in test [1] is no more than 10 nM; in test [2], 10.1 to 50 nM; in test [3] it was no more than 10 nM.

Consider `CO[C@H]1COC[C@@H]1Oc1cc(-c2cnn(C)c2)cc2ncnc(Nc3ccc4ncsc4c3)c12` (single isomer, unassigned) [Example A32], for which the IC50 was no more than 10 nM in test [1], 10.1 to 50 nM in test [2] and 10.1 to 50 nM in test [3].

For `CN1CC[C@H](O)[C@@H](Oc2cc(-c3cnn(C)c3)cc3ncnc(Nc4ccc5ncsc5c4)c23)C1` (single isomer, unassigned) [Example A33], the IC50 in test [1], in test [2] and in test [3] was no more than 10 nM in each case.

Regarding `CN1CC[C@H](O)[C@@H](Oc2cc(-c3cnn(C)c3)cc3ncnc(Nc4ccc5ncsc5c4)c23)C1` (single isomer, unassigned) [Example A34], the IC50 in test [1] was no more than 10 nM; in test [2], greater than 50.1 nM; in test [3] it was 10.1 to 50 nM.

As to `CN1CC[C@H](Oc2cc(-c3cnn(C)c3)cc3ncnc(Nc4ccc5ncsc5c4)c23)[C@@H](O)C1` (single isomer, unassigned) [Example A35], the IC50 in test [1] is no more than 10 nM; in test [2] it was 10.1 to 50 nM; in test [3], no more than 10 nM.

Take `CO[C@@H]1CCNC[C@H]1Oc1cc(-c2cnn(C)c2)cc2ncnc(Nc3ccc4ncsc4c3)c12` (single isomer, unassigned) [Example A37]: the results for the IC50 in test [1], in test [2] and in test [3] were no more than 10 nM, 10.1 to 50 nM and no more than 10 nM, respectively.

Take `CO[C@@H]1CCNC[C@H]1Oc1cc(-c2cnn(C)c2)cc2ncnc(Nc3ccc4ncsc4c3)c12` (single isomer, unassigned) [Example A38]: the IC50 in test [1] was no more than 10 nM; in test [2], 10.1 to 50 nM; in test [3], 10.1 to 50 nM.

For the molecule `CO[C@@H]1CCN(C)C[C@H]1Oc1cc(-c2cnn(C)c2)cc2ncnc(Nc3ccc4ncsc4c3)c12` (single isomer, unassigned) [Example A39], the IC50 in test [1] is no more than 10 nM; in test [2], greater than 50.1 nM; in test [3], 10.1 to 50 nM.

`CO[C@@H]1CCN(C)C[C@H]1Oc1cc(-c2cnn(C)c2)cc2ncnc(Nc3ccc4ncsc4c3)c12` (single isomer, unassigned) [Example A40]: the IC50 in test [1] was no more than 10 nM; in test [2], 10.1 to 50 nM; in test [3] it was no more than 10 nM.

In the case of `CO[C@@H]1CNCC[C@H]1Oc1cc(-c2cnn(C)c2)cc2ncnc(Nc3ccc4ncsc4c3)c12` (single isomer, unassigned) [Example A41], the IC50 in test [1] was no more than 10 nM; in test [2] it was 10.1 to 50 nM; in test [3] it was no more than 10 nM.

Consider `CO[C@@H]1CNCC[C@H]1Oc1cc(-c2cnn(C)c2)cc2ncnc(Nc3ccc4ncsc4c3)c12` (single isomer, unassigned) [Example A42], for which the IC50 in test [1], in test [2] and in test [3] was no more than 10 nM each time.

As for `CO[C@@H]1CN(C)CC[C@H]1Oc1cc(-c2cnn(C)c2)cc2ncnc(Nc3ccc4ncsc4c3)c12` (single isomer, unassigned) [Example A43], the IC50 in test [1] is no more than 10 nM; in test [2], 10.1 to 50 nM; in test [3], no more than 10 nM.

Consider `COc1nn(C)cc1-c1cc(O[C@H]2COC[C@@H]2O)c2c(Nc3ccc4ncsc4c3)ncnc2c1` (single isomer, unassigned) [Example A48], for which the IC50 in test [1], in test [2] and in test [3] was no more than 10 nM throughout.

With `COc1nn(C)cc1-c1cc(O[C@H]2COC[C@@H]2O)c2c(Nc3ccc4ncsc4c3)ncnc2c1` (single isomer, unassigned) [Example A49], the results for the IC50 in test [1], in test [2] and in test [3] were no more than 10 nM, 10.1 to 50 nM and 10.1 to 50 nM, respectively.

For the molecule `Cn1cc(-c2cc(O[C@@H]3CC[C@@H]3O)c3c(Nc4ccc5ncsc5c4)ncnc3c2)cn1` (single isomer, unassigned) [Example A51], the IC50 in test [1], in test [2] and in test [3] was no more than 10 nM in each case.

For `Cn1cc(-c2cc(O[C@@H]3CC[C@H]3O)c3c(Nc4ccc5ncsc5c4)ncnc3c2)cn1` (single isomer, unassigned) [Example A53], the IC50 in test [1], in test [2] and in test [3] was no more than 10 nM in each case.

For the molecule `Cn1cc(-c2cc(O[C@@H]3CC[C@H]3O)c3c(Nc4ccc5ncsc5c4)ncnc3c2)cn1` (single isomer, unassigned) [Example A54], the results for the IC50 in test [1], in test [2] and in test [3] were no more than 10 nM, 10.1 to 50 nM and no more than 10 nM, respectively.

With `COc1nn(C)cc1-c1cc(OC2CCN(C)CC2(F)F)c2c(Nc3ccc4ncsc4c3)ncnc2c1` (stereo not drawn) [Example 1, N-(5-((3,3-difluoro-1-methylpiperidin-4-yl)oxy)-7-(3-methoxy-1-methyl-1H-pyrazol-4-yl)quinazolin-4-yl)benzo[d]thiazol-6-amine], the IC50 in test [1], in test [2] and in test [3] was no more than 10 nM throughout.
